In PMC12598616, “Design and optimization of caspase-1-responsive fluorescent probes for pyroptosis imaging and anti-pyroptosis drug screening” (Chemical Science, 2025):

Target: T1, caspase-1 (Homo sapiens, UniProt P29466)
T1 sequence (P29466 120-297 limits assumed): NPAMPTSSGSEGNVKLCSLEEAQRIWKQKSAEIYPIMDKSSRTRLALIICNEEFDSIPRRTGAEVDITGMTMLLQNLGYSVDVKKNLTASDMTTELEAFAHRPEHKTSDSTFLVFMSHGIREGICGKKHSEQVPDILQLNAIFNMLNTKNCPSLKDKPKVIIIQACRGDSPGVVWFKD
T1 sequence (P29466 317-404 limits assumed): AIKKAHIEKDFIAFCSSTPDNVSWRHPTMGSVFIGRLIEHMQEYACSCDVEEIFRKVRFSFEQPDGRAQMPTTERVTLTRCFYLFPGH
Assay: Sensitivity of probes for caspase-1 (fluorescence at 585 nm)
Assay type: biochemical
Conditions: for linear fitting range of Cas-1 concentration: fluorescence intensity at 585 nm vs Cas-1 concentration; for enhancement of fluorescence intensity at 585 nm: Cas-1 0–3 U/mL, assay buffer 50 mM HEPES, 50 mM NaCl, 0.1% chaps, 5% glycerol, 10 mM DTT, 10 mM EDTA, λex 510 nm
Procedure: The spectral and chemical properties of all probes were then evaluated. Upon interaction with Cas-1, the specific peptide of the probes is cleaved, leading to the disruption of the FRET process in the system and the recovery of donor fluorescence (Fig. 2a). Prior to fluorescence detection, the UV-vis absorption spectra of the probes were acquired. […] Subsequently, the sensitivity of the probes towards Cas-1 was measured in HEPES buffer (50 mM HEPES, 50 mM NaCl, 0.1% chaps, 5% glycerol, 10 mM DTT, 10 mM EDTA). […] The response differences among the probes were more intuitively observed by analyzing the standard curves of fluorescence intensity at 585 nm against the concentration of Cas-1 (Fig. 2b). […] The reaction kinetics of the probes were also measured by monitoring the fluorescence intensity of FPy1, YPy1 and WPy1 (0.5–4 μM) following incubation with Cas-1 (2 U mL^−1) (Fig. S3a–f). […] The reaction time of the probes was also investigated by monitoring the fluorescence spectra of the probes (5 μM) incubated with Cas-1 (2 U mL^−1) at various time intervals (Fig. S4a–c). […] Finally, the selectivity of the probes was evaluated. A series of potential biologically relevant interferents were selected, and the results illustrated that these interferents had no effect on the probes (Fig. S5a–c). Further selectivity validation was performed through incubating with caspase-3 (1 μg mL^−1), caspase-4 (2 U mL^−1), caspase-8 (1 μg mL^−1) from the caspase protease family. […] Therefore, FPy1 appeared to be the prime candidate for Cas-1 imaging applications. […]
Cell culture plates were sourced from Wuxi NEST Biotechnology. Recombinant human caspase-1, caspase-3, caspase-4, and caspase-8 were obtained from Abcam and MCE (Shanghai, China). Anti-cleaved caspase-1 antibody, anti-GAPDH antibody, and goat anti-Rabbit/anti-mouse lgG/HRP were purchased from CST (USA) and Beyotime […]
(Shanghai, China). […]
Medical College (ethical approval number ZJCLA-IACUC-20011003).
(also on this page, place not known: Wang,*f, Wang*abg Supplementary Information (SI) for Chemical Science. This journal is © The Royal Society of Chemistry 2025)
(1 picture or pasted object on this page, not shown here) […]
mixture was stirred for 3 h. DCM was removed under vacuum, and the residue was purified by silica gel column chromatography (DCM/MeOH, 180/1) to afford WPy1 as a dark purple solid (21 mg, 6 % yield). HRMS (ESI+): calcd […]
Analysis of probe purity by LC-MSD
Prepare dilute solutions of FPy1, YPy1 and WPy1 using chromatographic-grade acetonitrile and transfer them to sample vials. Begin with an initial mobile phase consisting of 20% acetonitrile (0.05 % formic acid) and 80% H2O (0.05 % formic acid). Over the course of 30 minutes, implement a gradient change to a mobile phase of 90% acetonitrile (0.05 % formic acid) and 10% H2O (0.05 % FA). Under the elution conditions, LC-MSD was performed on the above probe solutions and blank solvent acetonitrile.
Sensitivity of probes for caspase-1
To investigate the sensitivity of the probes for caspase-1, varying concentration of caspase-1 (0, 0.2, 0.4, 0.6, 0.8, 1.0, 1.25, 1.5, 1.75, 2, 2.5, 3 U/mL) were incubated with FPy1 (5 μM), YPy1 (5 μM) and WPy1 (5 μM) respectively in caspase-1 assay buffer (50 mM HEPES, 50 mM NaCl, 0.1 % chaps, 5 % glycerol, 10 mM DTT, 10 mM EDTA) at 37 °C for 2 hours. Fluorescence spectra were recorded using Hitachi F-2700 spectrophotometer with an excitation at 510 nm (Photomultiplier voltage 700 V; Slit widths ex: 10 nm and em =5.0 nm). The fluorescence intensity of FPy1, YPy1 and WPy1 at 585 nm were plotted against the concentration of caspase-1, and a linear regression fitted from the corresponding concentration of caspase-1, and linear regression was applied to determine the slope k. The limit of detection (LoD) was calculated from 3σ/k, in which σ represents the standard deviation of 15 blank measurements.
Various concentrations of FPy1, YPy1 and WPy1 (0.5, 1, 2, 4 μM) in 100 μL enzyme assay buffer (50 mM HEPES, 50 […]

Substance | limit of detection (Cas-1, 3σ/k, σ from 15 blank measurements, probe 5 μM, 37 °C, 2 h, estimated) | fluorescence intensity at 585 nm at the same Cas-1 concentration (before maximum, compared to YPy1, probe 5 μM) | catalytic efficiency of Cas-1 for the probe (compared with YPy1, inferred from intensity at same Cas-1 concentration) | linear fitting range of Cas-1 concentration (probe 5 μM, 37 °C, 2 h) | enhancement of fluorescence intensity at 585 nm (probe 5 μM, 37 °C, 2 h)
–FLTDG– [FPy1, RhoB donor, hNR quencher] | 3.7 U L^−1 | stronger fluorescence intensity at 585 nm compared to YPy1 | higher catalytic efficiency for FPy1 than YPy1 | 0–1 U mL^−1 | approximately 20.2 fold
–YVADG– [YPy1, caspase-1-responsive FRET probe with recognition peptide –YVADG–; RhoB donor, hNR quencher] | – | – | – | 0–2 U mL^−1 | ~19.2 fold
